Reference: patent US6737383B1, “Herbicidal oxadiazolidines” (priority 1999, dated 2004)

Tests used:
pigweed = experiment: Test B pre/postemergence pigweed; assay type: in vivo, Amaranthus retroflexus
Summary of the method: (§1)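 Herbicidal effect was estimated by eye on a ten-point control scale after plants spent twelve to sixteen days in a greenhouse following soil or foliar treatment. Foliar sprays targeted plants at one to four leaves; all doses were formulated in a non-phytotoxic solvent with surfactant.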

soybean = experiment: Test B pre/postemergence soybean; assay type: in vivo, Glycine max
Summary of the method: as §1

smallflower flatsedge = experiment: Test B flood test smallflower flatsedge; assay type: in vivo, Cyperus difformis
Summary of the method: (§2)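 Read-out is a visual response score from 0 (no effect) to 10 (complete control), assigned by comparison with untreated controls. Treatment was applied at the 2-leaf stage, and plants stayed in the greenhouse for twelve to sixteen days before scoring.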

surinam grass = experiment: Test B pre/postemergence surinam grass; assay type: in vivo, Brachiaria decumbens
Summary of the method: as §1

rice = experiment: Test B flood test rice; assay type: in vivo, Oryza sativa
Summary of the method: as §2

wild oat = experiment: Test B pre/postemergence wild oat; assay type: in vivo, Avena fatua
Summary of the method: as §1

purple nutsedge = experiment: Test B pre/postemergence purple nutsedge; assay type: in vivo, Cyperus rotundus
Summary of the method: as §1

wheat = experiment: Test B pre/postemergence wheat; assay type: in vivo, Triticum aestivum
Summary of the method: as §1

cocklebur = experiment: Test B pre/postemergence cocklebur; assay type: in vivo, Xanthium strumarium
Summary of the method: as §1

velvetleaf = experiment: Test B pre/postemergence velvetleaf; assay type: in vivo, Abutilon theophrasti
Summary of the method: as §1

corn = experiment: Test B pre/postemergence corn; assay type: in vivo, Zea mays
Summary of the method: as §1

duck salad = experiment: Test B flood test duck salad; assay type: in vivo, Heteranthera limosa
Summary of the method: as §2

sugar beet = experiment: Test B pre/postemergence sugar beet; assay type: in vivo, Beta vulgaris
Summary of the method: as §1

bedstraw = experiment: Test B pre/postemergence bedstraw; assay type: in vivo, Galium aparine
Summary of the method: as §1

giant foxtail = experiment: Test B pre/postemergence giant foxtail; assay type: in vivo, Setaria faberii
Summary of the method: as §1

rape = experiment: Test B pre/postemergence rape; assay type: in vivo, Brassica napus
Summary of the method: as §1

[1] = Postemergence, Rate 62 g/ha, scale 0 to 10, 0 is no effect, 10 is complete control
[2] = Postemergence, Rate 250 g/ha, scale 0 to 10, 0 no effect, 10 complete control
[3] = Preemergence, Rate 62 g/ha, scale 0 to 10 (0 no effect, 10 complete control)
[4] = Preemergence, Rate 125 g/ha, scale 0 to 10 (0 no effect, 10 complete control)
[5] = Preemergence, Rate 250 g/ha, scale of 0 to 10 where 0 is no effect and 10 is complete control
[6] = Preemergence, Rate 500 g/ha, scale 0 (no effect) to 10 (complete control)
[7] = Rate 125 g/ha, Postemergence, scale 0 to 10, 0 no effect, 10 complete control
[8] = Rate 500 g/ha, Postemergence, scale 0 to 10, 0 no effect, 10 complete control
[9] = Rate 125 g/ha, Postemergence section (flood test species), scale 0 to 10, 0 no effect, 10 complete control
[10] = Rate 500 g/ha, listed under Postemergence (flood test species), scale 0 to 10, 0 no effect, 10 complete control
[11] = flood test, listed under Postemergence, Rate 250 g/ha, scale 0 to 10, 0 no effect, 10 complete control

`Cc1nn(C)c(C)c1-n1c(=O)on(C(=O)N(c2ccc(F)cc2)C(C)C)c1=O` [Compound 75] was tested, and the “Redroot pigweed plant response rating” value (pigweed; [1]) was 0, the “Redroot pigweed plant response rating” value (pigweed; [2]) was 0 and the “Redroot pigweed plant response rating” value (pigweed; [3]) was 0. For the same molecule, the “Plant response rating, Redroot pigweed” value (pigweed; [4]) was 2, the “Plant response rating, Redroot pigweed” value (pigweed; [5]) was 7 and the “Redroot pigweed plant response rating” value (pigweed; [6]) was 10. For the same molecule, the “Redroot pigweed plant response rating” value (pigweed; [7]) was 0, the “Redroot pigweed plant response rating” value (pigweed; [8]) was 0 and the “Soybean plant response rating” value (soybean; [1]) was 1. For the same molecule, the “Soybean plant response rating” value (soybean; [2]) was 2, the “Soybean plant response rating” value (soybean; [3]) was 0 and the “Plant response rating, Soybean” value (soybean; [4]) was 0. For the same molecule, the “Plant response rating, Soybean” value (soybean; [5]) was 0, the “Soybean plant response rating” value (soybean; [6]) was 0 and the “Soybean plant response rating” value (soybean; [7]) was 1. The “Soybean plant response rating” value (soybean; [8]) was 2, the “S. Flatsedge plant response rating” value (smallflower flatsedge; [1]) was 0 and the “S. Flatsedge plant response rating” value (smallflower flatsedge; [9]) was 0. For the same molecule, the “S. Flatsedge plant response rating” value (smallflower flatsedge; [10]) was 0, the “S. Flatsedge plant response rating” value (smallflower flatsedge; [11]) was 0 and the “B. signalgrass plant response rating” value (surinam grass; [1]) was 2. For the same molecule, the “B. signalgrass plant response rating” value (surinam grass; [2]) was 6, the “B. signalgrass plant response rating” value (surinam grass; [3]) was 0 and the “Plant response rating, B. signalgrass” value (surinam grass; [4]) was 1. For the same molecule, the “Plant response rating, B. signalgrass” value (surinam grass; [5]) was 2, the “B. signalgrass plant response rating” value (surinam grass; [6]) was 8 and the “B. signalgrass plant response rating” value (surinam grass; [7]) was 3. For the same molecule, the “B. signalgrass plant response rating” value (surinam grass; Rate 500 g/ha, Postemergence, scale of 0 to 10 where 0 is no effect and 10 is complete control) was 8, the “Rice plant response rating” value (rice; [1]) was 2 and the “Rice plant response rating” value (rice; [9]) was 2. The “Rice plant response rating” value (rice; [10]) was 2, the “Rice plant response rating” value (rice; [11]) was 2 and the “Wild oats plant response rating” value (wild oat; [1]) was 0. For the same molecule, the “Wild oats plant response rating” value (wild oat; [2]) was 0, the “Wild oats plant response rating” value (wild oat; [3]) was 0 and the “Plant response rating, Wild oats” value (wild oat; [4]) was 0. For the same molecule, the “Plant response rating, Wild oats” value (wild oat; [5]) was 8, the “Wild oats plant response rating” value (wild oat; [6]) was 8 and the “Wild oats plant response rating” value (wild oat; [7]) was 0. For the same molecule, the “Wild oats plant response rating” value (wild oat; [8]) was 2, the “Nutsedge plant response rating” value (purple nutsedge; [1]) was 0 and the “Nutsedge plant response rating” value (purple nutsedge; [2]) was 0. The “Nutsedge plant response rating” value (purple nutsedge; [3]) was 0, the “Plant response rating, Nutsedge” value (purple nutsedge; [4]) was 0 and the “Plant response rating, Nutsedge” value (purple nutsedge; [5]) was 0. The “Nutsedge plant response rating” value (purple nutsedge; [6]) was 0, the “Nutsedge plant response rating” value (purple nutsedge; [7]) was 0 and the “Nutsedge plant response rating” value (purple nutsedge; [8]) was 0. The “Wheat plant response rating” value (wheat; [1]) was 0, the “Wheat plant response rating” value (wheat; [2]) was 2 and the “Wheat plant response rating” value (wheat; [3]) was 0. The “Plant response rating, Wheat” value (wheat; [4]) was 0, the “Plant response rating, Wheat” value (wheat; [5]) was 0 and the “Wheat plant response rating” value (wheat; [6]) was 3. For the same molecule, the “Wheat plant response rating” value (wheat; [7]) was 0, the “Wheat plant response rating” value (wheat; [8]) was 4 and the “Cocklebur plant response rating” value (cocklebur; [1]) was 0. For the same molecule, the “Cocklebur plant response rating” value (cocklebur; [2]) was 1, the “Cocklebur plant response rating” value (cocklebur; [3]) was 0 and the “Plant response rating, Cocklebur” value (cocklebur; [4]) was 0. For the same molecule, the “Plant response rating, Cocklebur” value (cocklebur; [5]) was 0, the “Cocklebur plant response rating” value (cocklebur; [6]) was 0 and the “Cocklebur plant response rating” value (cocklebur; [7]) was 0. For the same molecule, the “Cocklebur plant response rating” value (cocklebur; [8]) was 1, the “Velvetleaf plant response rating” value (velvetleaf; [1]) was 0 and the “Velvetleaf plant response rating” value (velvetleaf; [2]) was 0. For the same molecule, the “Velvetleaf plant response rating” value (velvetleaf; [3]) was 0, the “Plant response rating, Velvetleaf” value (velvetleaf; [4]) was 0 and the “Plant response rating, Velvetleaf” value (velvetleaf; [5]) was 0. For the same molecule, the “Velvetleaf plant response rating” value (velvetleaf; [6]) was 0, the “Velvetleaf plant response rating” value (velvetleaf; [7]) was 0 and the “Velvetleaf plant response rating” value (velvetleaf; [8]) was 0. For the same molecule, the “Corn plant response rating” value (corn; [1]) was 0, the “Corn plant response rating” value (corn; [2]) was 0 and the “Corn plant response rating” value (corn; [3]) was 0. The “Plant response rating, Corn” value (corn; [4]) was 0, the “Plant response rating, Corn” value (corn; [5]) was 0 and the “Corn plant response rating” value (corn; [6]) was 0. The “Corn plant response rating” value (corn; [7]) was 0, the “Corn plant response rating” value (corn; [8]) was 0 and the “Ducksalad plant response rating” value (duck salad; [1]) was 0. The “Ducksalad plant response rating” value (duck salad; [9]) was 0, the “Ducksalad plant response rating” value (duck salad; [10]) was 0 and the “Ducksalad plant response rating” value (duck salad; [11]) was 0. For the same molecule, the “Sugarbeets plant response rating” value (sugar beet; [1]) was 0, the “Sugarbeets plant response rating” value (sugar beet; [2]) was 0 and the “Sugarbeets plant response rating” value (sugar beet; [3]) was 0. The “Plant response rating, Sugarbeets” value (sugar beet; [4]) was 0, the “Plant response rating, Sugarbeets” value (sugar beet; [5]) was 0 and the “Sugarbeets plant response rating” value (sugar beet; [6]) was 4. For the same molecule, the “Sugarbeets plant response rating” value (sugar beet; [7]) was 0, the “Sugarbeets plant response rating” value (sugar beet; [8]) was 0 and the “Bedstraw plant response rating” value (bedstraw; [1]) was 0. For the same molecule, the “Bedstraw plant response rating” value (bedstraw; [2]) was 0, the “Bedstraw plant response rating” value (bedstraw; [3]) was 0 and the “Plant response rating, Bedstraw” value (bedstraw; [4]) was 0. For the same molecule, the “Plant response rating, Bedstraw” value (bedstraw; [5]) was 0, the “Bedstraw plant response rating” value (bedstraw; [6]) was 0 and the “Bedstraw plant response rating” value (bedstraw; [7]) was 0. The “Bedstraw plant response rating” value (bedstraw; [8]) was 0, the “Giant foxtail plant response rating” value (giant foxtail; [1]) was 3 and the “Giant foxtail plant response rating” value (giant foxtail; [2]) was 8. For the same molecule, the “Giant foxtail plant response rating” value (giant foxtail; [3]) was 6, the “Plant response rating, Giant foxtail” value (giant foxtail; [4]) was 9 and the “Plant response rating, Giant foxtail” value (giant foxtail; [5]) was 9. The “Giant foxtail plant response rating” value (giant foxtail; [6]) was 10, the “Giant foxtail plant response rating” value (giant foxtail; [7]) was 6 and the “Giant foxtail plant response rating” value (giant foxtail; [8]) was 8. The “Rape plant response rating” value (rape; [1]) was 0, the “Rape plant response rating” value (rape; [2]) was 0 and the “Rape plant response rating” value (rape; [3]) was 0. The “Plant response rating, Rape” value (rape; [4]) was 0, the “Plant response rating, Rape” value (rape; [5]) was 0 and the “Rape plant response rating” value (rape; [6]) was 10. The “Rape plant response rating” value (rape; [7]) was 0 and the “Rape plant response rating” value (rape; [8]) was 0.
